Data as given in patent US20240360146A1, “BRUTON'S TYROSINE KINASE AND MUTANT DEGRADER, COMPOSITION AND APPLICATION THEREOF” (HANGZHOU HEALZEN THERAPEUTICS CO., LTD., priority 2021, published 2024).
pIC50: −log10 of the molar value.

Assays:
Mino cells = experiment: Inhibitory activity on Mino cell proliferation (MTS); type: cell-based; settings: Homo sapiens, 168 h incubation
Summary of the method: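 Cells seeded at 10000/well, treated with compounds from 1000 nM (4-fold, 8 points) for 72 h (OCI-LY10) or 168 h (Mino) at 37° C. MTS added for 2 h, stopped with SDS, absorbance read at 490 and 650 nm; IC50 from dose-response fit.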

OCI-LY10 cells = experiment: Inhibitory activity on OCI-LY10 cell proliferation (MTS); type: cell-based; settings: Homo sapiens, 72 h
Method: The anti-tumor efficacy of the compounds was tested by measuring their inhibitory effects on OCI-LY10 and Mino cell proliferation. OCI-LY10 and Mino cells were cultured in RPMI-1640 medium containing 10% fetal calf serum. OCI-LY10 and Mino cells were digested, inoculated in a 96-well plate at a cell concentration of 10000 cells/well, and incubated overnight at 37° C., 5% CO2. Compounds of different concentrations (1000 nM, 4-fold dilution, 8 points) were added to the 96-well plate and incubated for 72 h (LY10) or 168 h (Mino) at 37° C. and 5% CO2, and then 20 uL of MTS was added to each well. After incubation for 2 h, 25 μl of 10% SDS was added to each well to terminate the reaction. The absorbance at 490 nm and 650 nm were measured with a microplate reader. IC50 was calculated using GraphPad Prism 5.0.

BTK = biological target: T1, BTK (Homo sapiens, UniProt Q06187); experiment: BTK degradation activity test in Mino cells; type: cell-based; settings: 16 h incubation, Western blot or Elisa
T1 construct: endogenous in cells; host or cells: Mino cells
Summary of the method: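 Mino cells treated with a concentration series of compound for 16 h, then lysed; total protein by BCA. BTK quantified by Western blot or ELISA, degradation rate calculated against blank control, and DC50 fitted from the degradation curve.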

[1] = Stability of compounds in human liver microsome; type: in vitro ADME; settings: human liver microsomes, NADPH, 37° C., sampling 0-120 min; read-out: Human liver microsome T1/2
Method: Compound to be tested: the compound to be tested (1 mg) was dissolved in DMSO (10 mL) to formulate to 0.1 mg/mL.
Internal standard compound: the internal standard compound (1 mg) was dissolved in DMSO (10 mL), 10 μL was taken and diluted to 10 mL to formulate to 100 ng/mL.
NADPH solution: NADPH (2.08 mg) was dissolved in PBS (50 μL) buffer to formulate to 50 mM.
Under the condition of ice bath, 1 mg of human liver microparticles was add to PBS (1 mL) buffer, then NADPH (20 μL) was added, and incubated at 37° C. for 5 min. 10 μL of the compound to be tested was added, and then samples were taken at 0, 15, 30, 60 and 120 min respectively. 10 μL of the solution was taken with a pipette each time and added to 490 μL of the solution containing the internal standard compound. The resulting solution was vortexed and then placed on ice, and then sampling at another time point continues. All samples were centrifuged at 10,000 rpm for 10 min, and the supernatant was taken for LC/MS testing. The metabolism of the compound in liver microsomes was calculated based on the peak area.

T1 sequence (Q06187 whole entry): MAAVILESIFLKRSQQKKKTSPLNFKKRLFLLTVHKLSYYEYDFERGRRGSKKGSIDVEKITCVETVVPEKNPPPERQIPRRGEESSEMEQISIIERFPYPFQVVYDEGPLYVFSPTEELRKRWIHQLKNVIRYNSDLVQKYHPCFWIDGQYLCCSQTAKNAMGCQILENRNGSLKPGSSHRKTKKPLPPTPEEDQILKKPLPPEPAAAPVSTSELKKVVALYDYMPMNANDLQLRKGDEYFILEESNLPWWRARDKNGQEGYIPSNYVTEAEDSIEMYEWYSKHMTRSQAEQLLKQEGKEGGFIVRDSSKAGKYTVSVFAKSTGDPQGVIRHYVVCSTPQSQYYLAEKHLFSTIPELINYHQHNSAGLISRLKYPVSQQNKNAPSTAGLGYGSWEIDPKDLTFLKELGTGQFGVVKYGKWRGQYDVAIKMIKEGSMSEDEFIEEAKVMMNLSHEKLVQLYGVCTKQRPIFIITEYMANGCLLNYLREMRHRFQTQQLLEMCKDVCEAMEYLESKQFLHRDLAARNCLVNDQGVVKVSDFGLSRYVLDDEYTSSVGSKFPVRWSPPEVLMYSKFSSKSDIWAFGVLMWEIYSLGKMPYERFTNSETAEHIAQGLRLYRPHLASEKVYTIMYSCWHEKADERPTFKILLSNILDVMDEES

SMILES	pIC50 (OCI-LY10 cells)	DC50 (BTK) [nM]	half-life at 0.97 µg/mL [1] [min]	pIC50 (Mino cells)
CN1CCN([C@@H]2CCCN(c3nnc(C(N)=O)c(Nc4ccc(C5CCN(CC6CCN(c7cc8c(cc7F)C(=O)N(C7CCC(=O)NC7=O)C8=O)C6)CC5)cc4)n3)C2)C1=O (stereo partly drawn) [Compound 126, 5-((4-(1-((1-(2-(2,6-dioxopiperidin-3-yl)-6-fluoro-1,3-dioxoisoindolin-5-yl)pyrrolidin-3-yl)methyl)piperidin-4-yl)phenyl)amino)-3-((R)-3-(3-methyl-2-oxoimidazolin-1-yl)piperidin-1-yl)-1,2,4-triazin-6-carboxamide]	> 10.22	< 1	55.6	8.52
Cc1ccc(C(=O)N2CCC(CN3CCN(c4ccc(Nc5nc(N6CCC[C@@H](N7CCN(C)C7=O)C6)nnc5C(N)=O)cc4F)CC3)C2)cc1N1CCC(=O)NC1=O (stereo partly drawn) [Compound 150, 5-((4-(4-((1-(3-(2,4-dioxotetrahydropyrimidin-1(2H)-yl)-4-methylbenzoyl)pyrrolidin-3-yl)methyl)piperazin-1-yl)-3-fluorophenyl)amino)-3-((R)-3-(3-methyl-2-oxoimidazolin-1-yl)piperidin-1-yl)-1,2,4-triazin-6-carboxamide]	–	< 1	> 30	8.72
CN1CCN([C@@H]2CCCN(c3nnc(C(N)=O)c(Nc4ccc(N5CCN(CC6CCN(c7ccc(C(=O)NC8CCC(=O)NC8=O)cn7)C6)CC5)c(F)c4)n3)C2)C1=O (stereo partly drawn) [Compound 174, 5-((4-(4-((1-(5-((2,6-dioxopiperidin-3-yl)carbamoyl)pyridin-2-yl)pyrrolidin-3-yl)methyl)piperazin-1-yl)-3-fluorophenyl)amino)-3-((R)-3-(3-methyl-2-oxoimidazolidin-1-yl)piperidin-1-yl)-1,2,4-triazin-6-carboxamide]	8.99	< 1	> 30	–
CN1CCN([C@@H]2CCCN(c3nnc(C(N)=O)c(Nc4ccc(N5CCN(CC6CCN(c7ccc(C(=O)NC8CCC(=O)NC8=O)c8c7OCO8)CC6)CC5)c(F)c4)n3)C2)C1=O (stereo partly drawn) [Compound 177]	–	< 1	> 30	8.52
CN1CCN([C@@H]2CCCN(c3nnc(C(N)=O)c(Nc4ccc(N5CCN(CC6CCN(c7ccc(C(=O)NC8CCC(=O)NC8=O)c8[nH]cnc78)CC6)CC5)c(F)c4)n3)C2)C1=O (stereo partly drawn) [Compound 179, 4-(4-((4-(4-((6-carbamoyl-3-((R)-3-(3-methyl-2-oxoimidazolidin-1-yl)piperidin-1-yl)-1,2,4-triazin-5-yl)amino)-2-fluorophenyl)piperazin-1-yl)methyl)piperidin-1-yl)-N-(2,6-dioxopiperidin-3-yl)-1Hbenzimidazol-7-carboxamide]	–	< 1	> 30	8.83
COc1cc(N2CCC(CN3CCN(c4ccc(Nc5nc(N6CCC[C@@H](N7CCN(C)C7=O)C6)nnc5C(N)=O)cc4F)CC3)CC2)ccc1C(=O)NC1CCC(=O)NC1=O (stereo partly drawn) [Compound 181, 5-((4-(4-((1-(4-((2,6-dioxopiperidin-3-yl)carbamoyl)-3-methoxyphenyl)piperidin-4-yl)methyl)piperazin-1-yl)-3-fluorophenyl)amino)-3-((R)-3-(3-methyl-2-oxoimidazolidin-1-yl)piperidin-1-yl)-1,2,4-triazin-6-carboxamide]	9.11	< 1	> 30	–
CN1CCN([C@@H]2CCCN(c3nnc(C(N)=O)c(Nc4ccc(N5CCN(CC6CCN(c7ccc(N8CCC(=O)NC8=O)c(F)c7)CC6)CC5)c(F)c4)n3)C2)C1=O [Compound 184, (R)-5-((4-(4-((1-(4-(2,4-dioxotetrahydropyrimidin-1(2H)-yl)-3-fluorophenyl)piperidin-4-yl)methyl)piperazin-1-yl)-3-fluorophenyl)amino)-3-(3-(3-methyl-2-oxoimidazolidin-1-yl)piperidin-1-yl)-1,2,4-triazin-6-carboxamide]	8.81	< 1	> 30	–

Now from value to compound, other results behind:

pIC50 (OCI-LY10 cells)	DC50 (BTK) [nM]	half-life at 0.97 µg/mL [1] [min]	SMILES	pIC50 (Mino cells)
–	< 1	> 30	CN1CCN([C@@H]2CCCN(c3nnc(C(N)=O)c(Nc4ccc(N5CCN(CC6CCN(c7ccc8c(c7)C(=O)N(C7CCC(=O)NC7=O)C8=O)CC6)CC5)c(F)c4)n3)C2)C1=O (stereo partly drawn) [Compound 134, 5-((4-(4-((1-(2-(2,6-dioxopiperidin-3-yl)-1,3-dioxoisoindolin-5-yl)piperidin-4-yl)methyl)piperazin-1-yl)-3-fluorophenyl)amino)-3-((R)-3-(3-methyl-2-oxoimidazolin-1-yl)piperidin-1-yl)-1,2,4-triazin-6-carboxamide]	8.76
9.24	< 1	> 30	CN1CCN([C@@H]2CCCN(c3nnc(C(N)=O)c(Nc4ccc(N5CCN(CC6CCN(c7ccc(NC8CCC(=O)NC8=O)c(F)c7)CC6)CC5)c(F)c4)n3)C2)C1=O (stereo partly drawn) [Compound 205, 5-((4-(4-((1-(4-((2,6-dioxopiperidin-3-yl)amino)-3-fluorophenyl)piperidin-4-yl)methyl)piperazin-1-yl)-3-fluorophenyl)amino)-3-((R)-3-(3-methyl-2-oxoimidazolidin-1-yl)piperidin-1-yl)-1,2,4-triazin-6-carboxamide]	–
–	< 1	> 30	CN1CCN([C@@H]2CCCN(c3nnc(C(N)=O)c(Nc4ccc(N5CCN(CC6CCN(c7ccc8c(c7)n(C)c(=O)n8C7CCC(=O)NC7=O)C6)CC5)c(F)c4)n3)C2)C1=O (stereo partly drawn) [Compound 218, 5-((4-(4-((1-(1-(2,6-dioxopiperidin-3-yl)-3-methyl-2-oxo-2,3-dihydro-H-benzo[d]imidazol-5-yl)pyrrolidin-3-yl)methyl)piperazin-1-yl)-3-fluorophenyl)amino)-3-((R)-3-(3-methyl-2-oxoimidazolidin-1-yl)piperidin-1-yl)-1,2,4-triazin-6-carboxamide]	–
–	< 1	> 30	CN1CCN([C@@H]2CCCN(c3nnc(C(N)=O)c(Nc4ccc(N5CCN(CC6CCN(c7ccc8c9c([nH]c8c7)C(=O)N(C7CCC(=O)NC7=O)C9)CC6)CC5)c(F)c4)n3)C2)C1=O (stereo partly drawn) [Compound 222, 5-((4-(4-((1-(2-(2,6-dioxopiperidin-3-yl)-3-oxo-1,2,3,4-tetrahydropyrrolo[3,4-b]indol-6-yl)piperidin-4-yl)methyl)piperazin-1-yl)-3-fluorophenyl)amino)-3-((R)-3-(3-methyl-2-oxoimidazolidin-1-yl)piperidin-1-yl)-1,2,4-triazin-6-carboxamide]	8.38
9.08	< 1	> 30	CN1CCN([C@@H]2CCCN(c3nnc(C(N)=O)c(Nc4ccc(N5CCN(CC6CCN(c7ccc8c(=O)n(C9CCC(=O)NC9=O)ccc8c7)CC6)CC5)c(F)c4)n3)C2)C1=O (stereo partly drawn) [Compound 232, 5-((4-(4-((1-(2-(2,6-dioxopiperidin-3-yl)-1-oxo-1,2-dihydroisoquinolin-6-yl)piperidin-4-yl)methyl)piperazin-1-yl)-3-fluorophenyl)amino)-3-((R)-3-(3-methyl-2-oxoimidazolidin-1-yl)piperidin-1-yl)-1,2,4-triazin-6-carboxamide]	–
